# In US9440982B2 (Eolas Therapeutics, Inc., priority 2012, dated 2016):
# Like-named read-outs stand apart in the source and are kept apart here.
# What was measured:
# [1] = molecular target: T1, CYP3A4 (Homo sapiens, UniProt P08684); assay: Cytochrome P450 inhibition assay (midazolam hydroxylation); format: in vitro ADME; settings: human, human liver microsomes, probe midazolam (hydroxylation to 1′-hydroxymidazolam), 10 μM test compound, midazolam at approximately its Km
# T1 construct: pre-incubated with human liver microsomes and NADPH; from tissue; host or cells: human liver microsomes
# T1 sequence (P08684 whole entry): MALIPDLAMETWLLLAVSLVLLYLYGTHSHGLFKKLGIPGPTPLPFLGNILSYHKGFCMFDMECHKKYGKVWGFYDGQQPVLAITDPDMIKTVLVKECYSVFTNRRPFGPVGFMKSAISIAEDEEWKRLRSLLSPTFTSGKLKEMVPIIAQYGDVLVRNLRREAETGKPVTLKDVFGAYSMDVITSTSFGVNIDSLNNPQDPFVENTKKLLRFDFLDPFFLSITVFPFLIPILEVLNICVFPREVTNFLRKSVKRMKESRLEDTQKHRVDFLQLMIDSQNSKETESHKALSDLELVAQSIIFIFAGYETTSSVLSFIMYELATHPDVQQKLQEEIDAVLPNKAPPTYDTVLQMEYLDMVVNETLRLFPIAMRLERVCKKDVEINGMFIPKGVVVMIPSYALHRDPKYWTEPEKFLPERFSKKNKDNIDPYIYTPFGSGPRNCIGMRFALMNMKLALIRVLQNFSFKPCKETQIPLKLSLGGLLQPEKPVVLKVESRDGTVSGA
# In short: (§1)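 Percent inhibition of midazolam 1′-hydroxylation by 10 μM compound was measured, midazolam dosed at about Km. Time-dependent inhibition was probed by a 30 min preincubation of compound with human liver microsomes and NADPH ahead of substrate, compared against samples without preincubation.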
# [2] = test system: rats; assay: Nicotine self-administration assay (rats), with food responding; format: in vivo; settings: several doses
# Text: For all experiments, rats weighing 250-300 g were housed in groups of […] per cage, in a temperature-controlled vivarium under a reversed 12-h light/dark cycle (lights off at 8 am). Food and water were provided ad libitum until behavioral training commences. During training, rats were food-restricted to maintain ˜85-90% of their free-feeding body weight. Behavioral testing occurred during the dark portion of the light/dark cycle between the hours of 9 am-1 pm, during the early portion of the dark phase of the cycle. All procedures were conducted in strict adherence with the National Institutes of Health Guide for the Care and Use of Laboratory Animals and are approved by the Institutional Animal Care and Use Committee of The Scripps Research Institute.
# Rats were anesthetized by inhalation of 1-3% isoflurane in oxygen and silastic catheters were inserted into the jugular veins. Briefly, the catheters consist of a 14 cm length of silastic tubing fitted to a guide cannula (Plastics One, Wallingford, Conn.), bent at a curved right angle and encased in dental acrylic. The catheter tubing was passed subcutaneously from each animal's back to the right jugular vein, and 1 cm length of the catheter tip was inserted into the vein. […] During the TO period, responding on the lever was recorded but without scheduled consequence. […]
# [3] = molecular target: T2, OX1 (Homo sapiens, UniProt O43613); assay: Orexin receptor cell-based functional assay, [Ca2+]i by FLIPR, CHO-OX1 cells
# T2 construct: expressed in transfected cells; host or cells: CHO (CHO-OX1, kept under selection antibiotic)
# T2 sequence (O43613 1-425): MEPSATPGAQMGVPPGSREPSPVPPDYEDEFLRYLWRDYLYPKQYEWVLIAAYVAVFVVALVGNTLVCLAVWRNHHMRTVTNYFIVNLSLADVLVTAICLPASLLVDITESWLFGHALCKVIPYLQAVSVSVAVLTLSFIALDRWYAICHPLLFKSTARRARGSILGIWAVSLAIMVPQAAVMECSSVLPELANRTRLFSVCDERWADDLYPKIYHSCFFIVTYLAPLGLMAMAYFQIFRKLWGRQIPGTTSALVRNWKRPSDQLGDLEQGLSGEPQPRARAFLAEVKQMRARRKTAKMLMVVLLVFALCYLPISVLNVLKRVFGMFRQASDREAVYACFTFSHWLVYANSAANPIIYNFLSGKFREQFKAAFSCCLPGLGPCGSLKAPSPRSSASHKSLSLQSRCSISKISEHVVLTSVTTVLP
# In short: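 Antagonist mode FLIPR calcium read in CHO-OX1 and CHO-OX2 lines. Test compounds, dosed 0.1 nM-10 μM, preincubated 30 min after 37° C dye loading with 2.5 mM probenecid (calcium4 for 30 min or calcium6 for 2 h).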
# [4] = molecular target: T3, cytochrome P450 3A4 isoform (Homo sapiens, UniProt P08684); assay: Cytochrome P450 inhibition assay (midazolam hydroxylation); format: in vitro ADME; settings: 10 μM test compound, midazolam at approximately its Km, human liver microsomes
# T3 construct: pre-incubated with human liver microsomes and NADPH; from tissue; host or cells: human liver microsomes
# T3 sequence (P08684 whole entry, canonical isoform): as the sequence (P08684 whole entry) above
# In short: as §1
# [5] = test system: Hcrt-R1 WT and KO mice; assay: Nicotine self-administration assay (mice), with food self-administration; format: in vivo; settings: for food self-administration (SA): KO and WT mice, systemic administration 30 min prior to the SA session; for nicotine SA: doses 0, 5 and 10 mg/kg
# Text: To generate Hcrt-R1^+/+ and […] mice, breeding pairs of male and female Hcrt-R1^+/− mice that were backcrossed >10 generations on a C57BL/6 background were obtained from Jackson Laboratory (Bar Harbor, Me.). For all experiments, mice weighing 25-35 g were housed in groups of 2-3 per cage, in a temperature-controlled vivarium under a reversed 12-h light/dark cycle (lights off at 8 am). Food and water were provided ad libitum until behavioral training commenced. During training, mice were food-restricted to maintain ˜85-90% of their free-feeding body weight. Behavioral testing occurred during the dark portion of the light/dark cycle between the hours of 9 am-1 pm, during the early portion of the dark phase of the cycle. All procedures were conducted in strict adherence with the National Institutes of Health Guide for the Care and Use of Laboratory Animals and were approved by the Institutional Animal Care and Use Committee of The Scripps Research Institute.
# Mice were anesthetized by inhalation of 1-3% isoflurane in oxygen and silastic catheters were inserted into the jugular veins. Briefly, the catheters consisted of a 6 cm length of silastic tubing fitted to a guide cannula (Plastics One, Wallingford, Conn.), bent at a curved right angle and encased in dental acrylic. The catheter tubing was passed subcutaneously from each animal's back to the right jugular vein, and 1 cm length of the catheter tip was inserted into the vein. After surgery, catheters were flushed daily with 0.1 ml of a heparinized (30 USP units/ml) sterile saline solution. Following 7 d of surgical recovery, mice were mildly food restricted to 85-90% of their free-feeding body weight and trained to press a lever in an operant chamber (Med Associates, St. Albans, Vt.) for food pellets (20 mg; TestDiet, Richmond, Ind.) under a fixed-ratio 5, time out 20-s (FR5TO20 s) schedule of reinforcement […]. Once stable responding was achieved (>25 pellets per session), mice were permitted to acquire IV nicotine self-administration by autoshaping during 1-h daily sessions, 7 days per week. Nicotine was delivered through the tubing into the IV catheter by a Razel syringe pump (Med Associates). […] After 1 week, the nicotine dose was increased to 0.1 mg/kg/inf for the remainder of the experiment, including subsequent training and test sessions. […] During the TO period, responding on the lever was recorded but without scheduled consequence. […]
# For Hcrt-R1 re-expression studies, the human Hcrt-R1 gene was cloned into the pCDF1 lentivirus expression vector containing copGFP (GFP cloned from copepod Pontellina plumata) from Systems Biosciences. […] Viral supernatant titres were determined using the Lentivector Rapid Titer Kit from System Biosciences, according to the manufacturer's instructions. […]
# [6] = CHO-OX1 cells, [Ca2+]i by FLIPR, antagonist dose-range 0.1 nM-10 μM, EC90 of OXA, read-out: OX1
smiles,measurement,setting,value
"Cc1ccc(-c2cnn(C)c2)c(C(=O)N2CCC[C@@H](C)[C@H]2CNc2ccc(C(F)(F)F)cn2)c1 [Example A1, ((2S,3R)-3-Methyl-2-(((5-(trifluoromethyl)pyridin-2-yl)amino)methyl)piperidin-1-yl)(5-methyl-2-(1-methyl-1H-pyrazol-4-yl)phenyl)methanone]",inhibition at 10 µM,[1],98%
same,food intake,[2],does not have a significant effect
same,nicotine self-administration,[2],dose-dependent reduction
"C[C@@H]1CCCN(C(=O)c2cccc(F)c2-c2ncccn2)[C@@H]1CNc1ccc(Cl)cn1 [Example A232, ((2S,3R)-2-(((5-chloropyridin-2-yl)amino)methyl)-3-methylpiperidin-1-yl)(3-fluoro-2-(pyrimidin-2-yl)phenyl)methanone]",IC50,[3]; [6],8 nM
same,% CYP3A4 Inhibition,[4],65%
CC1(C)OC[C@H](NC(=O)Nc2ccc(Br)cc2Br)[C@H](c2ccccc2)O1 [JNJ10397049],food self-administration (SA),[5],no effect
same,nicotine SA,[5]; KO mice,marginal decrease
same,nicotine SA,[5]; WT mice,no effect
"Cc1nc(C(=O)N2CCC[C@@H](C)[C@H]2CNc2ccc(C(F)(F)F)cn2)c(-c2ccc(F)cc2)s1 (racemic) [Example 11, rac-cis-(5-(4-Fluorophenyl)-2-methylthiazol-4-yl)(3-methyl-2-(((5-(trifluoromethyl)pyridin-2-yl)amino)methyl)piperidin-1-yl)methanone]",IC50,"[3]; Table 2, CHO-OX1 cells, EC90 of OXA, read-out: IC50 Bioactivity OX1",8 nM
same,IC50,"[3]; Table 6, racemate vs enantiomers, read-out: OX1 IC50",8 nM
same,food self-administration (SA),[5],no effect
"C[C@@H]1CCCN(C(=O)c2cc(F)c(F)cc2-c2ncccn2)[C@@H]1CNc1ccc(C(F)(F)F)cn1 [Example A242, (4,5-Difluoro-2-(pyrimidin-2-yl)phenyl)((2S,3R)-3-methyl-2-(((5-(trifluoromethyl)pyridin-2-yl)amino)methyl)piperidin-1-yl)methanone]",IC50,[3]; [6],24 nM
same,% CYP3A4 Inhibition,[4],87%
"C[C@@H]1CCCN(C(=O)c2cccc(F)c2-c2ncccn2)[C@@H]1CNc1ncc(C(F)(F)F)cn1 [Example A230, (3-Fluoro-2-(pyrimidin-2-yl)phenyl)((2S,3R)-3-methyl-2-(((5-(trifluoromethyl)pyrimidin-2-yl)amino)methyl)piperidin-1-yl)methanone]",IC50,[3]; [6],5 nM
same,% CYP3A4 Inhibition,[4],50%
"Cc1ccc(-c2cnn(C)c2)c(C(=O)N2CCC[C@@H](C)[C@H]2CNc2nc3cc(Cl)ccc3o2)c1 [Example A40, ((2S,3R)-2-(((5-Chlorobenzo[d]oxazol-2-yl)amino)methyl)-3-methylpiperidin-1-yl)(5-methyl-2-(1-methyl-1H-pyrazol-4-yl)phenyl)methanone]",IC50,[3]; [6],20 nM
same,% CYP3A4 Inhibition,[4]; 10 µM,96%
"Cc1ccc(-n2nccn2)c(C(=O)N2CCC[C@@H](C)[C@H]2CNc2ccc(C#N)cn2)c1 [Example A46, 6-((((2S,3R)-3-Methyl-1-(5-methyl-2-(2H-1,2,3-triazol-2-yl)benzoyl)piperidin-2-yl)methyl)amino)nicotinonitrile]",IC50,[3]; [6],5 nM
same,% CYP3A4 Inhibition,[4]; 10 µM,53%
